Experiment [1] concerns the target T1, h-DHODH (Homo sapiens, UniProt Q02127).
T1 construct: endogenous in cells; host or cells: U937 cells (membrane fraction, solubilised with 1% octyl glucoside)
In words: Dihydro-orotate dehydrogenase inhibition assay (U937 membrane preparations, DCIP reduction). It counts as biochemical. Particulars: U937 membrane preparation; for inhibition at 0.3 µM: compound tested at 0.3 uM (footnote *). As for the experimental part: Dihydro-Orotate Dehydrogenase Inhibition Assay
Dihydro-orotate dehydrogenase (DHODH) catalyzes the […] of dihydro-orotate to orotate during de novo biosynthesis of pyrimidines Inhibition of DHODH activity in U937 membrane preparations was measured by the dihydro-orotate driven reduction of 2,6 dichloroindophenol (DCIP).
U937 cells were homogenized in 20 mM Tris/HCl (pH 7.2) containing 1 mM EDTA. […] Following washes, the pellet was dissolved in 20 mM Tris/HCl containing 150 mM NaCl, 1 mM EDTA, and 1% octyl glucoside on ice for 1 h. Particulate matter was removed by centrifugation at 100000×g for 1 h at 4° C. […] The mixture was incubated at 37° C. for 4 h before measuring the change in absorbance on a plate reader (BMG Labtech., Germany) at 600 nm. Data were analyzed using GraphPad Prism. IC50 for each compound was determined based on the percent inhibition of dihydro-orotate […].

Experiment [2] has as its system IL-17. In words: Inhibition of IL-17 release from mouse splenocytes (PMA + ionomycin, ELISA). The experiment is classed as cell-based, Balb/c mice. Particulars: Splenocyte, 10 μM, 3 h. As for the experimental part: 2. Inhibition of IL-17 Release from Mouse Splenocytes:
Splenocytes isolated from Balb/c mice were re-suspended in RPMI medium at a concentration of 1×10^6 cells/ml and seeded in a 6 well plate. Cells were incubated with desired concentrations of the inhibitor for 15 min prior to induction with 10 ng/ml PMA+1 μM ionomycin. After a 3 h incubation, supernatant was collected and analyzed for IL-17 concentration using an ELISA kit. Data were analyzed using GraphPad Prism. IC50 values for each compound were determined based on the percent inhibition due to the test compound compared to the control.
A general note: ELISA stands for enzyme-linked immunosorbent assay.

T1 sequence (Q02127 whole entry): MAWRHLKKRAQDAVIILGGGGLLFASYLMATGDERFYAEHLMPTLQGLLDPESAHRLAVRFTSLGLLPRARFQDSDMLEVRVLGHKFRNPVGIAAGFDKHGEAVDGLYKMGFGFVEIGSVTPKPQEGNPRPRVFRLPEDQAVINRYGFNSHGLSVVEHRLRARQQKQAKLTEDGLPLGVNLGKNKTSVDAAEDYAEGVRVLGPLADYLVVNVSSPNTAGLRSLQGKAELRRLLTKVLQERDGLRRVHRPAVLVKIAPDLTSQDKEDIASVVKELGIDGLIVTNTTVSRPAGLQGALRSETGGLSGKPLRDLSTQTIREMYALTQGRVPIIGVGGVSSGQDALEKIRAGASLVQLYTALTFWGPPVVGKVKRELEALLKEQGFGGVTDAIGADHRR

In the case of `CCOc1cccc(-c2cc(F)c(NC(=O)c3ccccc3CO)c(F)c2)c1` [Example 37, N-(3′-Ethoxy-3,5-difluorobiphenyl-4-yl)-2-(hydroxymethyl)benzamide], testing at 1 µM in experiment [1] gave an inhibition of 14.8%. Also, the inhibition at 10 µM in experiment [2] is 17.8%.
Turning to `COc1cc(Cl)cc(-c2cc(F)c(NC(=O)c3ccccc3C(=O)O)c(Cl)c2)c1` [Example 51, 2-(3,3′-Dichloro-5-fluoro-5′-methoxybiphenyl-4-ylcarbamoyl)benzoic acid], 1 µM produced 26.6% inhibition in experiment [1]. Also, the inhibition at 10 µM in experiment [2] is 10.8%.
Regarding `CCOc1cccc(-c2cc(F)c(NC(=O)c3ccccc3C(=O)O)c(Cl)c2)c1F` [Example 66, 2-(3-chloro-3′-ethoxy-2′,5-difluorobiphenyl-4-ylcarbamoyl)benzoic acid], in experiment [1], the inhibition at 1 µM is 87.5% and half-maximal inhibition (IC50) required 84.4 nM.
Take `O=C(O)c1ccccc1C(=O)Nc1c(F)cc(-c2ccc3c(c2)CCO3)cc1F` [Example 52, 2-[4-(2,3-Dihydrobenzofuran-5-yl)-2,6-difluorophenylcarbamoyl]benzoic acid]: at 1 µM the inhibition in experiment [1] was 12.8%. For the same molecule, in experiment [2], the inhibition at 10 µM stood at 13.8%.
As for `CCc1cccc(-c2cc(F)c(NC(=O)c3ccccc3C(=O)O)c(Cl)c2)c1` [Example 65, 2-(3-chloro-3′-ethyl-5-fluorobiphenyl-4-ylcarbamoyl)benzoic acid], in experiment [1], the inhibition at 1 µM was 71.2% and inhibition was half-maximal at 146 nM (IC50). In addition, the inhibition at 10 µM in experiment [2] amounted to 11%.
The molecule `COc1cc(Cl)cc(-c2cc(F)c(NC(=O)c3ccccc3C(=O)O)c(F)c2)c1` [Example 55, 2-(3′-Chloro-3,5-difluoro-5′-methoxybiphenyl-4-ylcarbamoyl)benzoic acid] returned an inhibition at 1 µM in experiment [1] of 44.5%. Also, the inhibition at 10 µM in experiment [2] was found to be 5.66%.
As for `O=C(O)c1ccccc1C(=O)Nc1c(F)cc(OCc2ccccc2)cc1F` [Example 40, 2-[4-(Benzyloxy)-2,6-difluorophenylcarbamoyl]benzoic acid], the inhibition at 10 µM in experiment [2] is 8.79%.
As to `COc1cc(-c2cc(F)c(NC(=O)c3ccccc3C(=O)O)c(Cl)c2)ccc1Cl` [Example 60, 2-(3,4′-Dichloro-5-fluoro-3′-methoxybiphenyl-4-ylcarbamoyl)benzoic acid], the inhibition at 1 µM in experiment [1] came to 41.8%. The inhibition at 10 µM in experiment [2] amounted to 20.3%.
The corresponding values for `COc1ccc(-c2cc(F)c(NC(=O)c3ccccc3C(=O)O)c(Cl)c2)cc1OC` [Example 56, 2-(3-Chloro-5-fluoro-3′,4′-dimethoxybiphenyl-4-ylcarbamoyl)benzoic acid] are 1.77% and 5.49%.
On to `O=C(O)c1ccccc1C(=O)Nc1ccc(-c2ccccc2)cc1` [Example 85, 2-(biphenyl-4-ylcarbamoyl)benzoic acid], for which 0.3 µM produced 15.1% inhibition in experiment [1]. Also, the inhibition at 10 µM in experiment [2] turned out to be 13%.
As to `O=C(O)c1ccccc1C(=O)Nc1c(F)cc(-c2ccc3c(c2)CCO3)cc1Cl` [Example 53, 2-[2-Chloro-4-(2,3-dihydrobenzofuran-5-yl)-6-fluorophenylcarbamoyl]benzoic acid], in experiment [2], the inhibition at 10 µM was determined as 8.28%.
In experiment [1], `Cc1c[nH]c2ccc(-c3cc(F)c(NC(=O)c4ccccc4C(=O)O)c(F)c3)cc12` [Example 63, 2-[2,6-difluoro-4-(3-methyl-1H-indol-5-yl)phenylcarbamoyl]benzoic acid] displayed an inhibition at 1 µM of 76.7% and an IC50 of 22 nM. Besides, the inhibition at 10 µM in experiment [2] amounted to 0%.
As to `COc1ccc(F)c(-c2cc(F)c(NC(=O)c3ccccc3C(=O)O)c(F)c2)c1` [Example 58, 2-(2′,3,5-Trifluoro-5′-methoxybiphenyl-4-ylcarbamoyl)benzoic acid], the inhibition at 1 µM in experiment [1] was 76.1%. For the same molecule, the inhibition at 10 µM in experiment [2] was found to be 5.46%.
For `COc1ccc(Cl)c(-c2cc(F)c(NC(=O)c3ccccc3C(=O)O)c(F)c2)c1` [Example 45, 2-(2′-Chloro-3,5-difluoro-5′-methoxybiphenyl-4-ylcarbamoyl)benzoic acid], in experiment [1], at 1 µM the inhibition was 96.2% and the IC50 was found to be 44.1 nM. The inhibition at 10 µM in experiment [2] is 48.5%.
In experiment [1], `COc1ccc(Cl)c(-c2cc(F)c(NC(=O)c3ccccc3C(=O)O)c(Cl)c2)c1` [Example 57, 2-(2′,3-Dichloro-5-fluoro-5′-methoxybiphenyl-4-ylcarbamoyl)benzoic acid] returned an inhibition at 1 µM of 68.1%.
In experiment [1], `O=C(O)c1ccccc1C(=O)Nc1c(F)cc(-c2cccc(OC(F)F)c2)cc1Cl` [Example 44, 2-[3-Chloro-3′-(difluoromethoxy)-5-fluorobiphenyl-4-ylcarbamoyl]benzoic acid] had an inhibition at 1 µM of 71.1% and an IC50 of 90.6 nM. The inhibition at 10 µM in experiment [2] stood at 35%.
`COc1cc(-c2cc(F)c(NC(=O)c3ccccc3C(=O)O)c(F)c2)ccc1Cl` [Example 59, 2-(4′-Chloro-3,5-difluoro-3′-methoxybiphenyl-4-ylcarbamoyl)benzoic acid] showed an inhibition at 1 µM in experiment [1] of 34.5%. Further, the inhibition at 10 µM in experiment [2] turned out to be 7.36%.
With `CCc1cccc(-c2cc(F)c(NC(=O)c3ccccc3C(=O)O)c(F)c2)c1` [Example 84, 2-(3′-ethyl-3,5-difluorobiphenyl-4-ylcarbamoyl)benzoic acid], 0.3 µM produced 36.6% inhibition in experiment [1]. Besides, the inhibition at 10 µM in experiment [2] is 12.1%.
For `COc1ccc(-c2cc(F)c(NC(=O)c3ccccc3C(=O)O)c(F)c2)cc1OC` [Example 49, 2-(3,5-Difluoro-3′,4′-dimethoxybiphenyl-4-ylcarbamoyl)benzoic acid], the inhibition at 10 µM in experiment [2] is 3.95%.
Same read-out and setting: under `Cc1nn(C)c2ccc(-c3cc(F)c(NC(=O)c4ccccc4C(=O)O)c(F)c3)cc12` [Example 54, 2-[4-(1,3-Dimethyl-1H-indazol-5-yl)-2,6-difluorophenylcarbamoyl]benzoic acid] stands 22.6%.
As to `O=C(O)c1ccccc1C(=O)Nc1c(F)cc(-c2ccc3c(c2)OCO3)cc1Cl` [Example 48, 2-[4-(Benzo[d][1,3]dioxol-5-yl)-2-chloro-6-fluorophenylcarbamoyl]benzoic acid], testing at 1 µM in experiment [1] gave an inhibition of 47.1%. Besides, the inhibition at 10 µM in experiment [2] was determined as 22%.
The corresponding values for `COc1cc(-c2cc(F)c(NC(=O)c3ccccc3C(=O)O)c(F)c2)ccc1F` [Example 62, 2-(3,4′,5-trifluoro-3′-methoxybiphenyl-4-ylcarbamoyl)benzoic acid] are 12.4% and 8.34%.
`C/C(O)=C(\C#N)C(=O)Nc1ccc(C(F)(F)F)cc1` [Teriflunomide, reference compound]: the inhibition at 10 µM was determined as 77.2% in experiment [1] (compound tested at 10 uM) and 0% in experiment [2].
`CCOc1cccc(-c2cc(F)c(NC(=O)c3cccc(F)c3C(=O)O)c(Cl)c2)c1` [Example 38, 2-(3-Chloro-3′-ethoxy-5-fluorobiphenyl-4-ylcarbamoyl)-6-fluorobenzoic acid] had an inhibition at 1 µM in experiment [1] of 27.8%. For the same molecule, in experiment [2], the inhibition at 10 µM is 9.35%.
With `CCOc1cccc(-c2cc(F)c(NC(=O)c3ccccc3CO)c(Cl)c2)c1` [Example 36, N-(3-Chloro-3′-ethoxy-5-fluorobiphenyl-4-yl)-2-(hydroxymethyl)benzamide], the inhibition at 10 µM in experiment [2] amounted to 45.5%.
In experiment [1], `O=C(O)c1ccccc1C(=O)Nc1c(F)cc(-c2cccc(OC(F)F)c2)cc1F` [Example 43, 2-[3′-(Difluoromethoxy)-3,5-difluorobiphenyl-4-ylcarbamoyl]benzoic acid] showed an inhibition at 1 µM of 58.2% and an IC50 of 181 nM. In addition, the inhibition at 10 µM in experiment [2] worked out at 6.82%.
Molecule `Cc1n[nH]c2ccc(-c3cc(F)c(NC(=O)c4ccccc4C(=O)O)c(F)c3)cc12` [Example 64, 2-[2,6-difluoro-4-(3-methyl-1H-indazol-5-yl)phenylcarbamoyl]benzoic acid] registered an inhibition at 1 µM in experiment [1] of 23.4%. In experiment [2], the inhibition at 10 µM amounted to 15.3%.
In experiment [1], `O=C(O)c1ccccc1C(=O)Nc1c(F)cc(-c2cccc(OCC(F)(F)F)c2)cc1Cl` [Example 68, 2-[3-chloro-5-fluoro-3′-(2,2,2-trifluoroethoxy)biphenyl-4-ylcarbamoyl]benzoic acid] registered an inhibition at 1 µM of 86.5% and an IC50 of 62.2 nM.
`CC[S+]([O-])c1cccc(-c2cc(F)c(NC(=O)c3ccccc3C(=O)O)c(F)c2)c1` (stereo not shown) [Example 72, 2-[3′-(ethylsulfinyl)-3,5-difluorobiphenyl-4-ylcarbamoyl]benzoic acid] yielded an inhibition at 1 µM in experiment [1] of 16.9%. In experiment [2], the inhibition at 10 µM is 7.36%.
The corresponding values for `COc1cc(F)cc(-c2cc(F)c(NC(=O)c3ccccc3C(=O)O)c(F)c2)c1` [Example 46, 2-(3,3′,5-Trifluoro-5′-methoxybiphenyl-4-ylcarbamoyl)benzoic acid] are 56% and 3.69%.
The matching figures for `O=C(O)c1ccccc1C(=O)Nc1c(F)cc(-c2ccc3c(c2)OCCO3)cc1Cl` [Example 67, 2-[2-chloro-4-(2,3-dihydrobenzo[b][1,4]dioxin-6-yl)-6-fluorophenylcarbamoyl]benzoic acid]: 54.1% and 3.56%.

What is called inhibition is the relative decrease from the control value, in per cent. What is called IC50 is the point on the concentration scale where inhibition reaches its midpoint. Read a low IC50 as greater potency in that assay.

The values are drawn from patent publication US8686048B2, “Immunomodulator and anti-inflammatory compounds” (Rhizen Pharmaceuticals SA, priority 2010, dated 2014).
